System: 4T1.2-Luc TNBC tumors
Assay: 4T1.2-Luc orthotopic TNBC mouse model, unilateral tumor: tumor volume, tumor weight and body weight
Assay type: in vivo, female BALB/c mice
Settings: trehalose IP
Source text: The model was created by orthotopically injecting 4T1.2-Luc cells in the 4th mammary fat pad of Balb/c mice, with 1×10^5 cells per mouse. The cell line was developed by Dr. Cheryl Jorcyk and it expresses luciferase gene which serves as a luminescent indicator of gene expression or tumorigenesis, making the tumor cell traceable in vivo. Treatment started after the formation of palpable tumors and was detected by in vivo BLI (IVIS, Perkin Elmer) followed by randomization of the animals per group. For evaluating the effect of the peptides on this model, we carried out two separate studies. The first pilot study involved a set of 4 mice per group with bilateral mammary tumors, which received six IP administration of PBS, 9S1R-NulloPT drug at 50 mg/kg, 100 mg/Kg body weight or Trehalose, over a period of 2 weeks. The present study includes a set of 7–9 mice per group with unilateral tumors including the same groups as previous, but received a total of eight injections per mouse over a period of 2 weeks. […]
Mice were anesthetized by isoflurane followed by measurement of the tumor length and width using a manual Vernier caliper. This was performed before every drug administration and the tumor volume was calculated using the formula (length × width^2)/2. Body weights were also measured before every dose of the drug.

## OC[C@H]1O[C@H](O[C@H]2O[C@H](CO)[C@@H](O)[C@H](O)[C@H]2O)[C@H](O)[C@@H](O)[C@@H]1O [Trehalose]
  post mortem tumor size, trehalose only group: no significant change
